Experimental data as given in US8383352B2, “Detection of maternal alcohol exposure” (Northwestern University, priority 2009, dated 2013).

How the values were obtained:
[1] = test system: Gsα; details: in utero exposure to ethanol; Western blot, normalized to β-actin; pregnant Sprague-Dawley dams, last two weeks of gestation
[2] = test system: Dio3; details: in utero exposure to ethanol; Western blot, normalized to β-actin; pregnant Sprague-Dawley dams, last two weeks of gestation
[3] = test system: TRα; details: in utero exposure to ethanol; Western blot, normalized to β-actin; pregnant Sprague-Dawley dams, last two weeks of gestation
[4] = test system: Dio3; details: fetal and adult frontal cortex and hippocampus; thyroid hormone levels inversely affected
[5] = test system: GR; details: in utero exposure to ethanol; Western blot, normalized to β-actin; pregnant Sprague-Dawley dams, last two weeks of gestation

SMILES: CCO [ethanol]
- Gsα protein levels in placenta [1]: up-regulation
- Dio3 protein levels in placenta [2]: up-regulation
- TRα protein levels in placenta [3]: down-regulation
- Dio3 imprinting and total expression patterns [4]: alters
- GR protein levels in placenta [5]: down-regulation
